Source: US20030148954A1, “Agents and methods for modulating activator protein-1-mediated cellular processes” (Wisconsin Alumni Research Foundation, priority 2001, published 2003)

Tests used:
CBF1 = target: T1, CBF1 (Homo sapiens, UniProt Q06330); test: Coimmunoprecipitation of CBF1 with NIC-1 from K562 cell lysates; format: binding; conditions: K562 cells, retroviral infection
T1 construct: endogenous in cells; host or cells: K562 cells retrovirally infected with NIC-1 expression vectors
Experimental: Retroviral Infection—Modified 293 human embryonic kidney cells were grown in 10 cm dishes until they were subconfluent and were cotransfected with plasmid DNA (15 μg) and pMD.G (6 μg) by the calcium phosphate transfection method as described previously (55). The medium was changed once after 10 h of transfection to remove the calcium phosphate. The pMD.G expression vector encodes the viral envelope protein VSV-G. The modified 293 cells were previously stably transfected with pol and gag genes (gift of Shigeki Miyamoto, University of Wisconsin Medical School). After additional incubation for 12 h, the medium was removed and K562 cells (10 ml, 3×10^5/ml) were added with polybrene (4 μg/ml) in complete IMEM and incubated for 36 h. The infected cells were separated from adherent 293 cells and then subjected to immunoprecipitation analysis.
Western Blotting—To detect the expression of Myc-tagged wild type NIC-1 and NIC-1 mutants, whole cell lysates were prepared in Nonidet P-40 lysis buffer (50 mM Hepes, pH 7.4, 1 mM EDTA, 150 mM NaCl, 10% glycerol, 1% Nonidet P-40, 2 mM DTT, 0.2 mM phenylmethanesulfonyl fluoride, and 20 μg/ml leupeptin). […] The proteins were transferred to an Immobilon P membrane (Millipore) and detected by immunoblotting with the anti-Myc tag monoclonal antibody 9E10. CBF1 was detected by immunoblotting with anti-CBF1 polyclonal antisera (Lam & Bresnick, unpublished data).

NF-κB = NF-κB luciferase reporter (p3×κBluc), transient transfection of K562 cells; format: cell-based, human; conditions: TPA
Description: (§1) Plasmids—The pBabe-NIC-1 (pNIC-1) expression vector encoding constitutively active Notch-1 (NIC-1) was described previously (36,37,51). This vector was derived from the pBabe-puro retroviral vector and includes a cDNA sequence encoding amino acids 1759-2556 of human Notch-1 with a Myc tag fused to its carboxyl terminus. Human NIC-1 deletion mutants were generated by PCR using a full-length human Notch-1 expression vector as the template. The Notch-dependent reporter plasmid containing four CBF1 binding sites and an simian virus 40 promoter fused to luciferase (p4×CBF1luc) was described previously (52). The AP-1 reporter plasmid (p1×AP1luc) containing a collagenase promoter fragment (−73/+67) with a single AP-1 binding site in the luciferase reporter vector pGL2-basic (Promega) was described previously (53). The NF-κB reporter plasmid (p3×κBluc) containing three NF-κB binding sites and a minimal promoter fused to luciferase was a kind gift of Dr. Shigeki Miyamoto (University of Wisconsin Medical School). […]
(§2) For each transfection, cells were incubated for 26 h after transfection and then treated with TPA (final concentration: 5 nM) or the vehicle (DMSO). […] Luciferase activity was normalized by the protein content of the lysates, determined by Bradford assay using γ-globulin as a standard.

CSL (CBF1) = test: CSL-dependent luciferase reporter, transient transfection of HeLa cells; format: cell-based, human
Description: as §1, §2

T1 sequence (Q06330 whole entry): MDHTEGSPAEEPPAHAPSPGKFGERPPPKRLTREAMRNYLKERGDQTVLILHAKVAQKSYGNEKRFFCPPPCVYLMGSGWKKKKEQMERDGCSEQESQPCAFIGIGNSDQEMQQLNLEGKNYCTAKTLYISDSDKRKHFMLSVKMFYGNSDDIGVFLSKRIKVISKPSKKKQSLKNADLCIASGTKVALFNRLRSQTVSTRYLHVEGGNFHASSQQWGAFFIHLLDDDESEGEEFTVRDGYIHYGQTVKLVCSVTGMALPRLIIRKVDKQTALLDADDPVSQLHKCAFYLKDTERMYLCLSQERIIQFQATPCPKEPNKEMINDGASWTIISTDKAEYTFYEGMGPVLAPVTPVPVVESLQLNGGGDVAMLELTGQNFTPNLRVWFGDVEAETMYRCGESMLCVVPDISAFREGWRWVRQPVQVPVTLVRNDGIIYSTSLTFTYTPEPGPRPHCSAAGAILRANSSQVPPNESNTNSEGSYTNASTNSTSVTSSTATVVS

**Q.** Which “recovery of CBF1 in anti-NIC-1 immunoprecipitates” value (CBF1) does the source give for “NIC-1: constitutively active Notch-1 intracellular domain, amino acids 1759-2556 of human Notch-1 with carboxyl-terminal Myc tag, expressed from pBabe-NIC-1” here?
**A.** Its value is “coimmunoprecipitated”.

**Q.** What about the “effect on TPA-induced NF-κB-dependent reporter activity” value (NF-κB) of the same substance?
**A.** Its value is “no effect”.

**Q.** And the “activation of CSL-dependent reporter activity” value (CSL (CBF1))?
**A.** Its value is “strongly activated”.
